Some test systems named below: DU-145; NCI/ADR-RES; SK-MEL-28; OVCAR-8; HCC 2998; SN12C; NCI-H226; KM12; HCT-15; SK-OV-3; EKVX; HL-60; SNB-75; SK-MEL-5; MDA-MB-435; NCI-H522; MCF7; NCI-H460; A498.
Experiment in all cases: NCI tumour cell line growth inhibition, 48 h

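Step 1: Grow cells in 96-well plates. Step 2: Expose to compound for 48 hours at 5 concentrations. Step 3: Interpolate endpoints linearly; if unreached, use highest concentration. At the GI50, growth is halved.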 Calls of active or inactive are those of the source. Cut-off read from the data, not from the text of the source: active = GI50 up to about 1.1 µM and inactive = higher. Residues, ends and D or L forms follow the SMILES beside them. Where only a bound is given, the exact number is not on record here.

With `CC1(C)OC2[C@@H](CO[C@@]3([C@H]4OC(C)(C)O[C@@H]4CO)OC(C)(C)O[C@@H]23)O1` (some centres not stated), the GI50 with DU-145, in the assay with NCI/ADR-RES, with SK-MEL-28, in the assay with OVCAR-8, with HCC 2998 and with SN12C was > 100 µM (inactive) throughout. Besides, the GI50 in the assay with NCI-H226 is > 100 µM (inactive); with KM12 it was > 100 µM (inactive); with HCT-15 it was greater than 100 µM; in the assay on SK-OV-3 it was > 100 µM (inactive); with EKVX, > 100 µM (inactive); with HL-60, > 100 µM (inactive). Also, the GI50 with SNB-75, in the assay with SK-MEL-5, in the assay with MDA-MB-435, with NCI-H522, with MCF7 and in the assay with NCI-H460 was > 100 µM (inactive) throughout.

On to `N=C(N)SCc1cc(Cl)cc(Cl)c1O`, for which the GI50 in the assay on DU-145 is 17.6 µM (inactive); in the assay with NCI/ADR-RES, 26.2 µM (inactive); in the assay with SK-MEL-28, 22.6 µM (inactive); with A498 it was 22.3 µM (inactive); in the assay with OVCAR-8, 18.3 µM (inactive); with HCC 2998, 17.7 µM (inactive). For the same compound, the GI50 was 17.4 µM (inactive) in the assay with SN12C; 20.3 µM (inactive) in the assay on NCI-H226; 18.4 µM (inactive) in the assay on KM12; 20.1 µM with HCT-15; 36.1 µM (inactive) in the assay with SK-OV-3; 15.2 µM (inactive) in the assay with EKVX. The GI50 is 3.21 µM (inactive) in the assay on HL-60; 16.6 µM (inactive) with SK-MEL-5; 19.7 µM (inactive) in the assay on MDA-MB-435; 15.9 µM (inactive) with NCI-H522; 25.2 µM (inactive) with MCF7; 18.1 µM (inactive) in the assay on NCI-H460.

As for `NC1CNC(=O)c2cscc21` (configuration not stated), the GI50 was > 100 µM (inactive) in the assay with DU-145; 3.01 µM (inactive) in the assay on NCI/ADR-RES; > 100 µM (inactive) in the assay with SK-MEL-28; > 100 µM (inactive) in the assay with A498; > 100 µM (inactive) in the assay with HCC 2998; > 100 µM (inactive) in the assay with SN12C. Besides, the GI50 was > 100 µM (inactive) in the assay on KM12; greater than 100 µM in the assay with HCT-15; > 100 µM (inactive) in the assay with EKVX; > 100 µM (inactive) with HL-60; > 100 µM (inactive) in the assay with SK-MEL-5; > 100 µM (inactive) with MDA-MB-435. Further, the GI50 in the assay with NCI-H522, in the assay on MCF7 and in the assay with NCI-H460 was > 100 µM (inactive) each time.

Regarding `CC1(C)N=C(N)N=C(N)N1c1cccc(OCc2cccc(N)c2)c1`, the GI50 with DU-145 was > 86.3 µM (inactive); in the assay with NCI/ADR-RES it was > 100 µM (inactive); with SK-MEL-28, > 100 µM (inactive); in the assay on A498, > 93.1 µM (inactive); in the assay on OVCAR-8 it was > 83 µM (inactive); with SN12C, 19 µM (inactive). Also, the GI50 in the assay on NCI-H226 was > 100 µM (inactive); with KM12 it was 49.9 µM (inactive); with HCT-15, greater than 100 µM; with SK-OV-3, > 100 µM (inactive); with EKVX, > 88.3 µM (inactive); in the assay on HL-60, 5.61 µM (inactive). In addition, the GI50 in the assay on SNB-75 is > 100 µM (inactive); with SK-MEL-5 it was 12.4 µM (inactive); in the assay with MDA-MB-435, 16.4 µM (inactive); with NCI-H522, 26.4 µM (inactive); in the assay with MCF7 it was 39.9 µM (inactive); in the assay on NCI-H460, 3.87 µM (inactive).

Take `O=C1CSC(c2cccc([N+](=O)[O-])c2)N1c1ccc(-n2c(-c3ccccc3)nc3ccccc3c2=O)cc1` (configuration not stated): the GI50 is > 100 µM (inactive) in the assay with DU-145; > 100 µM (inactive) with NCI/ADR-RES; > 100 µM (inactive) in the assay on SK-MEL-28; > 100 µM (inactive) in the assay on A498; > 100 µM (inactive) in the assay on OVCAR-8; 63.7 µM (inactive) in the assay on HCC 2998. Further, the GI50 with SN12C is > 100 µM (inactive); with NCI-H226, > 100 µM (inactive); in the assay on KM12, > 100 µM (inactive); in the assay with HCT-15 it was 30.5 µM; in the assay on SK-OV-3 it was 26.2 µM (inactive); in the assay on EKVX, > 100 µM (inactive). Also, the GI50 in the assay with HL-60, in the assay on SK-MEL-5, with MDA-MB-435, with NCI-H522, in the assay with MCF7 and in the assay with NCI-H460 was > 100 µM (inactive) throughout.

Turning to `CC(=O)Nc1ncc2c(n1)-c1ccccc1OC2c1ccccc1` (configuration not stated), the GI50 was > 100 µM (inactive) in the assay with DU-145; 32.8 µM (inactive) with NCI/ADR-RES; 20.7 µM (inactive) with A498; 23.6 µM (inactive) with OVCAR-8; 87.9 µM (inactive) in the assay with SN12C; 20.5 µM (inactive) in the assay with NCI-H226. Moreover, the GI50 in the assay on KM12 was > 100 µM (inactive); in the assay on HCT-15, greater than 100 µM; in the assay on SK-OV-3, 42.8 µM (inactive); with EKVX it was 61 µM (inactive); in the assay with HL-60 it was > 100 µM (inactive); in the assay on SNB-75, 14.1 µM (inactive). Also, the GI50 was > 100 µM (inactive) in the assay with SK-MEL-5; > 100 µM (inactive) in the assay with MDA-MB-435; 37.7 µM (inactive) with NCI-H522; > 100 µM (inactive) in the assay with MCF7; > 100 µM (inactive) in the assay on NCI-H460.

As for `COc1ccc(C=C2C(C)=NN(c3cccc(Cl)c3)C23C(Cl)C(=O)N3c2nc3ccccc3s2)cc1` (configuration not stated), the GI50 is 17.5 µM (inactive) in the assay on DU-145; 20.3 µM (inactive) in the assay with NCI/ADR-RES; 9.25 µM (inactive) with SK-MEL-28; 18.5 µM (inactive) in the assay on A498; 18.9 µM (inactive) in the assay on OVCAR-8; 3 µM (inactive) in the assay with HCC 2998. Also, the GI50 with NCI-H226 is 21.4 µM (inactive); with KM12 it was 13.6 µM (inactive); in the assay on HCT-15, 16.8 µM; in the assay with SK-OV-3, 28.6 µM (inactive); with EKVX, 27.3 µM (inactive); in the assay on HL-60, 2.05 µM (inactive). Also, the GI50 in the assay with SK-MEL-5 is 15.1 µM (inactive); in the assay with MDA-MB-435, 16.5 µM (inactive); in the assay on NCI-H522, 8.53 µM (inactive); in the assay on MCF7, 17.5 µM (inactive); in the assay with NCI-H460, 24 µM (inactive).

As to `Cc1ccc(S(=O)(=O)NCCN(CCNS(=O)(=O)c2ccc(C)cc2)S(=O)(=O)c2ccc(C)cc2)cc1`, the GI50 was > 100 µM (inactive) in the assay on DU-145; > 100 µM (inactive) with NCI/ADR-RES; 43.8 µM (inactive) with SK-MEL-28; > 100 µM (inactive) in the assay with A498; 94.6 µM (inactive) in the assay with OVCAR-8; > 100 µM (inactive) in the assay on HCC 2998. Besides, the GI50 was > 100 µM (inactive) with SN12C; > 100 µM (inactive) in the assay on KM12; greater than 100 µM with HCT-15; 43.1 µM (inactive) in the assay with SK-OV-3; 85.1 µM (inactive) in the assay with EKVX; 43.9 µM (inactive) in the assay on SK-MEL-5. The GI50 in the assay with MDA-MB-435 was 30.8 µM (inactive); in the assay with NCI-H522 it was > 100 µM (inactive); in the assay on MCF7, 81.7 µM (inactive); with NCI-H460 it was > 100 µM (inactive).

For the compound `COC(=O)C(O)P(=O)(OC)OC` (configuration not stated), the GI50 with DU-145, with NCI/ADR-RES, in the assay with SK-MEL-28, in the assay on A498, with OVCAR-8 and in the assay on SN12C was > 100 µM (inactive) throughout. In addition, the GI50 in the assay on NCI-H226 is > 100 µM (inactive); with KM12, > 100 µM (inactive); with HCT-15, greater than 100 µM; with SK-OV-3, > 100 µM (inactive); with EKVX, > 100 µM (inactive); in the assay on HL-60, > 100 µM (inactive). Moreover, the GI50 with SK-MEL-5, in the assay on MDA-MB-435, with NCI-H522 and in the assay with MCF7 was > 100 µM (inactive) each time.

Regarding `CCC(C)C(NC(=O)C(CCCCN)NC(=O)C(NC(=O)C(CCC(N)=O)NC(=O)C(N)CCCNC(=N)N)C(C)CC)C(=O)NC(Cc1c[nH]c2ccccc12)C(=O)NC(Cc1ccccc1)C(=O)NC(CCC(N)=O)C(=O)NC(CC(N)=O)C(=O)NC(CCCNC(=N)N)C(=O)NC(CCCNC(=N)N)C(=O)NC(CCSC)C(=O)NC(CCCCN)C(=O)NC(Cc1c[nH]c2ccccc12)C(=O)NC(CCCCN)C(=O)NC(CCCCN)C(=O)N1CCCC1C(=O)NC(C)C(=O)NC(CCCCN)C(=O)NC(CCCNC(=N)N)C(=O)NC(CCCCN)C(=O)NC(CC(C)C)C(=O)NC(Cc1ccccc1)C(=O)NCC(=O)O` (configuration not stated) (H-RQIKIWFQNRRMKWKKPAKRKLFG-OH; configuration not given here), the GI50 with DU-145, in the assay on NCI/ADR-RES, in the assay on SK-MEL-28, with OVCAR-8, in the assay on HCC 2998 and with SN12C was > 25 µM (inactive) each time. The GI50 with NCI-H226 was > 25 µM (inactive); in the assay on KM12, 9.31 µM (inactive); with HCT-15, greater than 25 µM; with SK-OV-3 it was > 25 µM (inactive); in the assay on EKVX it was > 25 µM (inactive); in the assay on HL-60, 6.93 µM (inactive). Moreover, the GI50 with SNB-75 was > 25 µM (inactive); in the assay with SK-MEL-5 it was 16.5 µM (inactive); in the assay with MDA-MB-435, 16 µM (inactive); in the assay on NCI-H522, > 25 µM (inactive); in the assay with MCF7, > 25 µM (inactive); in the assay on NCI-H460, 24.7 µM (inactive).

Take `CN(C)/C=N/c1c2c(nc3ccccc13)CCCC2`: the GI50 in the assay with DU-145 is > 100 µM (inactive); in the assay on NCI/ADR-RES, 37.3 µM (inactive); with SK-MEL-28, 44.2 µM (inactive); in the assay on A498, 49.9 µM (inactive); in the assay on OVCAR-8 it was 50.1 µM (inactive); in the assay with SN12C, > 100 µM (inactive). Besides, the GI50 with NCI-H226 was 36 µM (inactive); with HCT-15, greater than 100 µM; in the assay on SK-OV-3, > 100 µM (inactive); with EKVX, > 100 µM (inactive); with HL-60 it was 31.1 µM (inactive); in the assay on SNB-75 it was 93.8 µM (inactive). Besides, the GI50 is > 100 µM (inactive) in the assay with SK-MEL-5, > 100 µM (inactive) in the assay with MDA-MB-435, > 100 µM (inactive) in the assay on NCI-H522 and 72.9 µM (inactive) with MCF7.

(Values after ChEMBL document CHEMBL1201862, “PubChem BioAssay data set” (2004).)
